Measured values from a melting point compilation (Tetko et al.; mined from patent text by program, amines drawn as free bases though some values may be those of a salt).

Row | Compound | melting point [°C]
1 | Cc1nc2cc(S(=O)(=O)n3c(COC(C)(C)C(=O)O)cc4cc(Cl)ccc43)ccc2s1 | 134 to 136
2 | Nc1cc(OC(=O)Oc2cc(N)c(F)cc2Cl)c(Cl)cc1F | 136 to 137
3 | Fc1ccc(CN2CC=C(/C=C/c3ccccc3)CC2)cc1 | 115 to 117
4 | CC(C)(C)CC(NC(=O)c1ccc(Cl)cc1)NC(=NC#N)Nc1cccnc1 (configuration not stated) | 181 to 183
5 | N#Cc1cc(-c2nc3cncnc3s2)ccc1Oc1ccc(O)cc1 | > 250
6 | N#CC1=C(C#N)NC(c2ccccc2)C(O)=N1 (configuration not stated) | 222 to 224
7 | O=C(Nc1ccc2c(c1)CCC2)c1ccccc1C(c1ccc(O)cc1)c1ccc(O)cc1 | 220 to 223
8 | CC(O)C1(c2cccc(Cl)c2)CCCN(C)CC1 (configuration not stated) | 123 to 124
9 | CCNC(=O)Nc1cccc(Oc2nnc([C@@H](C)NS(=O)(=O)c3ccc(Cl)c(Cl)c3)n2CC)c1 | 118 to 120
10 | CC(C)(Sc1nc(N)cc(Cl)n1)c1ccccn1 | 183 to 184
11 | Cc1c(CC(N)=O)c2cc(OCc3nc4ccccc4s3)ccc2n1Cc1ccc(Cl)cc1 | 169 to 170
12 | CC(C)(C)c1cc(Cl)cc2c1OC(=O)C2O (configuration not stated) | 150 to 154
13 | COc1ccc(Nc2nc(-c3cc(-c4ccccc4)no3)cs2)nc1 | 203 to 205
14 | Cc1c(N2C[C@@H](N)C(C)(C)C2)c(F)c(N)c2c(=O)c(C(=O)O)cn(C3CC3)c12 | 192 to 193
15 | CS(=O)(=O)c1ccc(CCl)cc1 | 102
16 | Cc1nc2cccc3n(CCCCNS(=O)(=O)C(F)(F)F)c(=O)c1n23 | 195 to 196
17 | Cc1cc(Cl)c2c(C#N)cn(-c3ccc(C(C)C)cc3Br)c2n1 | 123
18 | COc1ccc(Br)cc1C1=NC(C)(C)CO1 | 41
19 | COc1cc2nc(N)nc(-c3ccc(C)c(Br)c3Br)c2cc1OC | 233 to 236
20 | O=C(Cc1ccc([N+](=O)[O-])cc1)c1ccc([N+](=O)[O-])cc1 | 131 to 133
21 | O=C(Oc1ccccc1)N1CCN2C(=O)OC(c3ccccc3)(c3ccccc3)C2C1 (configuration not stated) | 189 to 191
22 | COC(=O)C(CCSC)NC(=O)c1ccc(NC(=O)Cc2cn(C)cn2)cc1-c1ccccc1 (configuration not stated) | 69 to 70
23 | COc1ccc(/C=C(\C#N)c2ccc3ccccc3c2)cc1OC1CCCC1 | 147 to 148
24 | c1ccc(-c2cc(N3CCCCC3)c(-c3ccccc3)o2)cc1 | 103
25 | Nc1ncc(-c2ccccc2-c2ncccn2)c(N)n1 | 95.1
26 | O=C(NCc1cc[nH]n1)c1ccnc(N2CCN(Cc3ccc(F)cc3)C2=O)c1 | 178 to 180

Row | Compound | melting point [°C]
27 | CC(C)(C)c1ccc(S(=O)(=O)N2c3ccccc3C[C@H]2C(=O)NCc2cccc(O)c2)cc1 | 94
28 | CCCc1ccc(C2c3c(C)c(N)c(C)c(C)c3OC2(C)C)cc1 (configuration not stated) | 68 to 69
29 | COc1cc(CNC(=O)c2nc3scc(COCc4ccc(C(=O)O)cc4)c3c(=O)[nH]2)ccn1 | 240 to 242
30 | O=C(Nc1nc(=O)[nH]s1)c1ccc2ccccc2c1 | > 250
31 | CCOC(=O)c1c(O)c2ccc(C)nc2[nH]c1=O | 190 to 193
32 | CN(C)c1ccc(-c2cc(-c3ccccc3)nc(-c3ccccc3)c2)cc1 | 128 to 129
33 | Cc1ccc2c(c1)C=Cc1cc(C)c(C)cc1C2c1cn(Cc2ccc(C(=O)O)o2)c(=O)[nH]c1=S (configuration not stated) | 292
34 | Nc1nc(O)c2cc(C#Cc3ccc(C(=O)O)cc3)cnc2n1 | > 260
35 | O=CNCc1ccccc1C(F)(F)C(F)(F)c1ccccc1 | 61 to 75
36 | Cc1cccc(Cl)c1NC(=O)/C=C1\SCC(=O)N1c1ccccc1 | 213 to 214
37 | CN1C(=O)CN=C(c2ccccc2)c2cc(CN)ccc21 | 201
38 | Cn1cc(OS(C)(=O)=O)c(=O)c2ccc(Cl)cc21 | 157 to 158
39 | Cc1[nH]c(=S)[nH]c1-c1cc(C(C)(C)C)c(O)c(C(C)(C)C)c1 | 288 to 290
40 | CCOC(=O)Cc1oc(-n2cnc3ccccc32)nc1-c1ccc(Cl)cc1 | 152 to 153
41 | O=C(N[C@H]1CCC[C@@H]1O)C(O)=CC(=O)c1cc(Cc2ccc(F)cc2F)cn(Cc2ccc(F)cc2)c1=O | 85 to 86
42 | CC(C)(C)OC(=O)[C@H]1CC[C@@H](c2ccccc2)N1C(=O)CNC(=O)Nc1cccc(OCC(=O)O)c1 (racemic) | 192
43 | CCN1CCc2ccc(Nc3ncc(Cl)c(NC4CCCCNC4=O)n3)cc2CC1 (configuration not stated) | 232 to 234
44 | O=C1Nc2cccc(I)c2C(=O)N2CC[C@@H]12 | 186 to 187
45 | CC(C)(C)CNc1nc(C#N)nc2ccc(OCc3cccnc3)cc12 | 156 to 158
46 | COC(=O)c1ccccc1NC(=S)c1ccc(OC)nc1 | 133 to 140
47 | CCCCOC(=O)c1ccccc1OC(=O)N(C)SN(C)C(=O)ON=C(C)SC | 68 to 74
48 | O=[N+]([O-])c1cc(N=Nc2ccc(S(=O)(=O)F)cc2)cc(Cl)c1O | 129 to 133
49 | Nc1nc(Cl)cc(OCC2(CO)CCC2)n1 | 125 to 127
50 | Clc1ccc(-c2csc(-c3cnccc3Cl)n2)cc1 | 149 to 150
51 | C=C(OCc1ccccc1)C(=O)OC | 44.5 to 45.5
52 | Cc1nn(C)c(-c2ccc(F)cc2)c1C=O | 130 to 131

Row | Compound | melting point [°C]
53 | COc1cc2c(cc1OC)C(Cc1ccc(NC(C)=O)c(I)c1)N(C(=O)C(F)(F)F)CC2 (configuration not stated) | 174 to 175
54 | CN(C)CCOc1ccc(Nc2ncc3c(n2)N(C)C(=O)N(c2c(Cl)cccc2Cl)C3)cc1 | 173 to 174
55 | Cc1c(CCC(=O)c2cn(Cc3ccccc3)c3ccccc23)ncn1C(c1ccccc1)(c1ccccc1)c1ccccc1 | 186 to 188
56 | Cn1c(Cc2c(F)cccc2F)nnc1C(N)=O | 189 to 190
57 | O=C1c2ccccc2C(=O)N1CCC(=O)N(c1ccccc1)c1ccccc1 | 140
58 | COc1ccccc1C(=O)Nc1ccc(COc2ccc3c(c2)CCC(CN(C)C)C3)cc1 (configuration not stated) | 106 to 108
59 | COC(=O)c1ccc2c(c1)Sc1ccccc1N=C2 | 104 to 110
60 | CCc1nn2ccc3c(c2c1C(C)C#N)CCO3 (configuration not stated) | 86 to 88
61 | C[C@@H](Oc1cc(-c2cnn(C3CCNCC3)c2)cnc1N)c1c(Cl)ccc(F)c1Cl | 194
62 | CCC(c1cccc(Br)c1)c1c(O)c2ccccc2oc1=O (configuration not stated) | 168 to 172
63 | COc1ccc(-n2nc(C(=O)CCCO[N+](=O)[O-])cc2-c2ccc(S(C)(=O)=O)cc2)cc1 | 132 to 134
64 | Cc1cc(C=O)ccc1C(=O)O | 196 to 198
65 | CCc1oc2ccc([N+](=O)[O-])cc2c1C(=O)c1ccc(OC)cc1 | 130
66 | O=Cc1ccc(Sc2nc3cc(Cl)c(Cl)cc3[nH]2)o1 | 170
67 | COc1ccc(C(=O)NC(=O)N2CC2C#N)cc1 (configuration not stated) | 130 to 132
68 | OCc1cc2ccccc2[nH]1 | 73.5 to 74.4
69 | CC(C)NCC(O)COc1cccc(-c2oc3ccccc3c2C(=O)c2ccc(Cl)cc2)c1 (configuration not stated) | 53 to 60
70 | COc1cc(CCCCC2OC(=O)NC2=O)ccc1OCc1ccccc1 (configuration not stated) | 92 to 93
71 | CCOC(=O)CN1C(=O)C(Br)CCc2ccccc21 (configuration not stated) | 114 to 116
72 | ONCc1ccc(N2CCC3(CC2)OCCO3)cc1 | 107 to 109
73 | Cc1ccc(C(=O)O)c(Sc2nc(C)c(CC(=O)O)s2)n1 | 223 to 225
74 | CCCCCCCCCCC(Cn1ccnc1)SCCCC (configuration not stated) | 95 to 97
75 | CSc1ccc(N(C)S(=O)(=O)c2ccc(C)cc2)c(C#N)c1 | 139 to 140
76 | CSCC[C@H](NC(=O)C1(CS)Cc2ccccc2C1)C(=O)O | 68 to 69
77 | N#Cc1cccc(C=CC=O)c1 | 100
78 | C=CCOc1cc2c(cc1CC=C)CCC(=O)N2CC=C(C)C | 20 to 28

Row | Compound | melting point [°C]
79 | CCOc1cc2c(cc1S(N)(=O)=O)C(CNC(=O)N1CC(C)=C(CC)C1=O)CCO2 (configuration not stated) | 192
80 | COc1cc2cc(/C=C/C#N)sc2cc1OC | 154 to 158
81 | Cc1[nH]nc(C(C)C)c1Oc1cc(C#N)cc(C#N)c1 | 142 to 144
82 | O=C1c2ccccc2C(=O)N1CC(=O)N1c2ccc(F)cc2N(Cc2ccccc2)C(=O)C2CCC[C@H]21 (single isomer, unassigned) | 266 to 268
83 | Clc1ccc2nc3c4ccccc4c4ccccc4c3nc2c1 | 241 to 242
84 | CCCOC(=O)Oc1ccc(-c2ccc(C#N)cc2)cc1 | 70.2 to 70.9
85 | CCOC(=O)c1[nH]c(=O)c(CC(C)C)[n+]([O-])c1OC | 153 to 155
86 | CC(c1ccc(C(F)(F)F)cc1)N(O)C(N)=O (configuration not stated) | 133 to 135
87 | O=C(COc1cc(F)ccc1C(=O)NCc1cccc([N+](=O)[O-])c1)OC1CCCCC1 | 87 to 90
88 | CC(=O)Oc1ccc2c(c1)CCC1C2CCC2(C)C(OS(C)(=O)=O)CCC12 (configuration not stated) | 120 to 122
89 | COc1ccc2[nH]ncc2c1C | 148 to 149
90 | CC(=Nc1ccc(C2=NNC(=O)CC2C)cc1)c1ccc(O)cc1O (configuration not stated) | 185 to 190
91 | Nc1nc2[nH]c(CCC#Cc3ccsc3C(=O)N[C@@H](CCC(=O)O)C(=O)O)cc2c(=O)[nH]1 | 177 to 178
92 | N#Cc1ccc(C=NNS(=O)(=O)c2ccccc2)cc1 | 209 to 213
93 | OCCNC(=S)NC(=Nc1cccc2ccccc12)c1ccccc1 | 131 to 132
94 | C=CCn1c(OC)n[nH]c1=O | 111
95 | Cn1ncc(N2CCCCC2)c(-c2ccccc2C=O)c1=O | 134 to 135
96 | CCC(Oc1cnc(Cl)c(Cl)c1)C(=O)NC(C)(C)C#CCO (configuration not stated) | 129 to 131
97 | ON=C1c2ccccc2-c2c1c(N1CCN(c3ccccn3)CC1)nc1ccc(Br)cc21 | 235 to 237
98 | COC(=O)c1cccc(S(=O)(=O)C2CCN(CCc3ccc(F)cc3F)CC2)c1 | 116 to 117
99 | CCOC(CNC(=S)Nc1c(F)ccc2nc(C)ccc12)OCC | 189 to 191
100 | CNC(=O)c1cn(-c2cc3c(=O)n(NS(C)(=O)=O)c(=O)[nH]c3cc2C(F)(F)F)cn1 | 292 to 295
101 | O=C(NC1CCCC1)c1ccc(S(=O)(=O)Cl)cc1 | 143
102 | N#Cc1c(N2CCN(C(=O)c3ccco3)CC2)c2cc(Cl)cnc2n(Cc2ccccc2)c1=O | 196
